Drawing on patent US20080021026A1, “BENZOTHIOPHENE INHIBITORS OF RHO KINASE” (priority 2006, published 2008), this text covers IC50 for 26 compounds.

Structures are written as SMILES.

The target in assay [1] is T1, recombinant N-terminal GST-tagged human Rho kinase 2 (ROCK2, amino acids 1-552) (Homo sapiens, UniProt O75116).
T1 construct: ROCK2, amino acids 1-552; purchased Invitrogen Inc. PV3759
In words: In vitro Rho kinase assay (luciferase-based ATP consumption), ROCK2. The assay is classed as biochemical. The note with it: recombinant GST-tagged human ROCK2, luciferase-based ATP consumption; read-out: ROCK2 IC50. The gist of the method: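 GST-ROCK2 (aa 1-552, 0.82 μg/ml) with 100 μg/ml S6 peptide and 3 µM ATP in Tris pH 7.5 buffer with MgCl2/CaCl2/EGTA/BSA, compound added just after reaction start, 2 h at 30 °C. Remaining ATP read by luciferase luminescence. Efficacy expressed as percentage of H-1152P positive control.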

In assay [2] the target is T2, recombinant N-terminal GST-tagged human Rho kinase 1 (ROCK1, amino acids 1-535) (Homo sapiens, UniProt Q13464).
T2 construct: ROCK1, amino acids 1-535; purchased Invitrogen Inc. PV-3691
T2 sequence (Q13464 1-535): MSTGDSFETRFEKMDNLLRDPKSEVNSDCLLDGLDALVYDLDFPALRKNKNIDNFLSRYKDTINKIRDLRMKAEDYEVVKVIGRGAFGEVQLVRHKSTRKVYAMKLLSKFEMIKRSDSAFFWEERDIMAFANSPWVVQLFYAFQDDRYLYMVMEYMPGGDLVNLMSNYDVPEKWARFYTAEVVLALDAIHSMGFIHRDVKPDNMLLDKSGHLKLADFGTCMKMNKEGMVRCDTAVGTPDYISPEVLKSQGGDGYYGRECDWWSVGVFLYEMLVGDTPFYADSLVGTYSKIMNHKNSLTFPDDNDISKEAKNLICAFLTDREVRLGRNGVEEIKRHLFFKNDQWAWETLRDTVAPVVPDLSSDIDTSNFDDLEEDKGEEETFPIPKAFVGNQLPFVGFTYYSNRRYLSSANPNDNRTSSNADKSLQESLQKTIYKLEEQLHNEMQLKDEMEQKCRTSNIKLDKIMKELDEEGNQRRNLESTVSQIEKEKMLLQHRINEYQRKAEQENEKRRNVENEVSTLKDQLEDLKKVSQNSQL
In words: In vitro Rho kinase assay (luciferase-based ATP consumption), ROCK1. The format is biochemical. Particulars: recombinant GST-tagged human ROCK1, luciferase-based ATP consumption; read-out: ROCK1 IC50. The protocol: In Vitro Rho Kinase Assay
Rho kinase biochemical assays described below depend on firefly luciferase-based, indirect measurement of total ATP consumption by the kinase following incubation with substrate and ATP. 25 μl of Rho kinase assay buffer (20 mM Tris-HCL [pH 7.5], 1 mM MgCl2, 0.4 mM CaCl2, 0.15 mM EGTA, 0.1 mg/ml bovine serum albumin) containing 0.82 μg/ml of recombinant N-terminal GST-tagged human Rho kinase 1 (ROCK1, amino acids 1-535, Invitrogen Inc., cat. #PV-3691) or recombinant N-terminal GST-tagged human Rho kinase 2 (ROCK2, amino acids 1-552, Invitrogen Inc., cat #PV3759), 100 μg/ml S6 peptide substrate (related to amino acids 218-249 of the human 40S ribosomal protein S6, and suitable for ROCK1 or ROCK2, e.g. Upstate/Millipore Inc., cat #12-420), and 3 µM ATP are dispensed to wells of a 384 multi-well opaque plate. The plate is centrifuged for 30 seconds at approximately 200×g. 240 nl of test compound in DMSO is dispensed to each well by passive pin transfer. The lag phase of this in vitro kinase reaction permits addition of compounds soon after the reaction initiates. The reaction is allowed to incubate at 30° C. for 2 hours. The assay plates are sealed and maintained in a humidified environment. After 2 hours, 25 μl of easylite protein kinase assay reagent (Perkin-Elmer, Inc.) is dispensed. After an additional 10 minute incubation at room temperature (about 22° C.), luminescence activity is measured on a Molecular Devices Analyst multi-mode plate reader or other suitable plate reader. Kinase inhibition results in less ATP consumption, and therefore increased luminescence signal. Negative control activity is measured with DMSO lacking any test compound. The positive control is 2-methyl-1-(4-methylisoquinolin-5-ylsulfonyl)perhydro-1,4-diazepine hydrochloride (aka H-1152P, HCl salt). Efficacy is measured as a percentage of positive control activity. […] The designation NT means the cited example was not tested.

T1 sequence (O75116 1-552): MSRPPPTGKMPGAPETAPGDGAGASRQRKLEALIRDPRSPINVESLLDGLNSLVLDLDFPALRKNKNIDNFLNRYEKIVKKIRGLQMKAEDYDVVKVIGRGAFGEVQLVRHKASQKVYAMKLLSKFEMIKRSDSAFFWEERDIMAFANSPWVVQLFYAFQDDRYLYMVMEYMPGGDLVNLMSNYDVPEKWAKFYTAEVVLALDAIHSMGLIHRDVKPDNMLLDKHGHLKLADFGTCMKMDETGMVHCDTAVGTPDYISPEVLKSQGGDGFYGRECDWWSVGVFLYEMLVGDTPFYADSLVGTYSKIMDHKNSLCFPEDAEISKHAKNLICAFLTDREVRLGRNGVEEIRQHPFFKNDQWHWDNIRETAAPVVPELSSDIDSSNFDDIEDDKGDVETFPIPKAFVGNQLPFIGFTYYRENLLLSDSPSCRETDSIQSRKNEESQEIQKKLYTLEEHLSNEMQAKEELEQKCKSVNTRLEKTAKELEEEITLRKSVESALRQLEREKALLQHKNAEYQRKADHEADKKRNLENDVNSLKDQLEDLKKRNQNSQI

Turning to `Cc1c(-c2ccnc(N)n2)sc2ccc(CNC(=O)Cc3ccccc3O)cc12` [Example 35, N-((2-(2-Aminopyrimidin-4-yl)-3-methylbenzo[b]thiophen-5-yl)methyl)-2-(2-hydroxyphenyl)acetamide], the IC50 in assay [1] and in assay [2] was less than 5 µM each time.
As for `COc1ccc(OC)c(C(=O)NCc2ccc3sc(-c4ccnc(N)n4)c(C)c3c2)c1` [Example 36, N-((2-(2-Aminopyrimidin-4-yl)-3-methylbenzo[b]thiophen-5-yl)methyl)-2,5-dimethoxybenzamide], the IC50 in assay [1] and in assay [2] was less than 5 µM throughout.
For the compound `COc1ccccc1Cc1ccc2sc(-c3ccnc(N)n3)c(C)c2c1` [Example 37, 4-(5-(2-Methoxybenzyl)-3-methylbenzo[b]thiophen-2-yl)pyrimidin-2-amine], the half-inhibitory concentration (IC50) in assay [1] and in assay [2] was greater than 5 µM each time.
Regarding `COc1ccc(OC)c(Cc2ccc3sc(-c4ccnc(N)n4)c(C)c3c2)c1` [Example 38, 4-(5-(2,5-Dimethoxybenzyl)-3-methylbenzo[b]thiophen-2-yl)pyrimidin-2-amine], the IC50 in assay [1] and in assay [2] was greater than 5 µM throughout.
On to `Cc1c(-c2ccnc(N)n2)sc2ccc(Cc3cccc(C(F)(F)F)c3)cc12` [Example 39, 4-(3-Methyl-5-(3-(trifluoromethyl)benzyl)benzo[b]thiophen-2-yl)pyrimidin-2-amine], for which the IC50 in assay [1] and in assay [2] was greater than 5 µM throughout.
Turning to `Cc1c(-c2ccnc(N)n2)sc2ccc(Cc3cccc(C#N)c3)cc12` [Example 40, 3-((2-(2-Aminopyrimidin-4-yl)-3-methylbenzo[b]thiophen-5-yl)methyl)benzonitrile], the IC50 in assay [1] and in assay [2] was less than 5 µM each time.
Take `Cc1c(-c2ccnc(N)n2)sc2ccc(Cc3cccc(C(=O)O)c3)cc12` [Example 41, 3-((2-(2-Aminopyrimidin-4-yl)-3-methylbenzo[b]thiophen-5-yl)methyl)benzoic acid]: the IC50 in assay [1] and in assay [2] was less than 5 µM throughout.
For `COC(=O)c1cccc(Cc2ccc3sc(-c4ccnc(N)n4)c(C)c3c2)c1` [Example 42, Methyl 3-((2-(2-aminopyrimidin-4-yl)-3-methylbenzo[b]thiophen-5-yl)methyl)benzoate], the IC50 was less than 5 µM in assay [1] and greater than 5 µM in assay [2].
For `Cc1c(-c2ccnc(N)n2)sc2ccc(Cc3cccc(C(=O)OC(C)C)c3)cc12` [Example 43, Isopropyl 3-((2-(2-aminopyrimidin-4-yl)-3-methylbenzo[b]thiophen-5-yl)methyl)benzoate], in that order: less than 5 µM and less than 5 µM.
For `Cc1c(-c2ccnc(N)n2)sc2ccc(Cc3cccc(C(=O)Nc4ccc(OCCN5CCCCC5)cc4)c3)cc12` [Example 44, 3-((2-(2-Aminopyrimidin-4-yl)-3-methylbenzo[b]thiophen-5-yl)methyl)-N-(4-(2-(piperidin-1-yl)ethoxy)phenyl)benzamide], in that order: less than 5 µM and less than 5 µM.
In the same order, the values of `Cc1c(-c2ccnc(N)n2)sc2ccc(Cc3cccc(C(=O)Nc4ccc(N5CCOCC5)cc4)c3)cc12` [Example 45, 3-((2-(2-Aminopyrimidin-4-yl)-3-methylbenzo[b]thiophen-5-yl)methyl)-N-(4-morpholinophenyl)benzamide] are less than 5 µM and less than 5 µM.
For the compound `COc1ccc(NC(=O)c2cccc(Cc3ccc4sc(-c5ccnc(N)n5)c(C)c4c3)c2)cc1` [Example 46, 3-((2-(2-Aminopyrimidin-4-yl)-3-methylbenzo[b]thiophen-5-yl)methyl)-N-(4-methoxyphenyl)benzamide], the concentration for half-maximal inhibition (IC50) in assay [1] and in assay [2] was less than 5 µM throughout.
As for `CCN(CC)CCNC(=O)c1cccc(Cc2ccc3sc(-c4ccnc(N)n4)c(C)c3c2)c1` [Example 47, 3-((2-(2-Aminopyrimidin-4-yl)-3-methylbenzo[b]thiophen-5-yl)methyl)-N-(2-(diethylamino)ethyl)benzamide], the half-inhibitory concentration (IC50) in assay [1] and in assay [2] was less than 5 µM each time.
For `Cc1c(-c2ccnc(N)n2)sc2ccc(Cc3cccc(C(=O)NCCN4CCOCC4)c3)cc12` [Example 48, 3-((2-(2-Aminopyrimidin-4-yl)-3-methylbenzo[b]thiophen-5-yl)methyl)-N-(3-morpholinoethyl)benzamide], the IC50 in assay [1] and in assay [2] was less than 5 µM in each case.
Consider `Cc1c(-c2ccnc(N)n2)sc2ccc(Cc3cccc(C(=O)NCCCN4CCOCC4)c3)cc12` [Example 49, 3-((2-(2-Aminopyrimidin-4-yl)-3-methylbenzo[b]thiophen-5-yl)methyl)-N-(3-morpholinopropyl)benzamide], for which the IC50 in assay [1] and in assay [2] was less than 5 µM in each case.
For the compound `Cc1c(-c2ccnc(N)n2)sc2ccc(Cc3cccc(C(=O)N4CCN(C)CC4)c3)cc12` [Example 50, (3-((2-(2-Aminopyrimidin-4-yl)-3-methylbenzo[b]thiophen-5-yl)methyl)phenyl)(4-methylpiperazin-1-yl)methanone], the IC50 in assay [1] and in assay [2] was less than 5 µM each time.
For the compound `Cc1c(-c2ccnc(N)n2)sc2ccc(Nc3cccc(Oc4ccccc4)c3)cc12` [Example 53, 4-(3-Methyl-5-(3-phenoxyphenylamino)benzo[b]thiophen-2-yl)pyrimidin-2-amine], the IC50 in assay [1] and in assay [2] was less than 5 µM each time.
`Cc1c(-c2ccnc(N)n2)sc2ccc(Nc3cccc(OC(F)(F)F)c3)cc12` [Example 54, 4-(3-Methyl-5-(3-(trifluoromethoxy)phenylamino)benzo[b]thiophen-2-yl)pyrimidin-2-amine]: the IC50 in assay [1] and in assay [2] was greater than 5 µM throughout.
With `Cc1c(-c2ccnc(N)n2)sc2ccc(Nc3cccc(OCc4ccccc4)c3)cc12` [Example 55, 4-(5-(3-(Benzyloxy)phenylamino)-3-methylbenzo[b]thiophen-2-yl)pyrimidin-2-amine], the IC50 in assay [1] and in assay [2] was less than 5 µM each time.
In the case of `Cc1c(-c2ccnc(N)n2)sc2ccc(Nc3cccc(NS(C)(=O)=O)c3)cc12` [Example 56, N-(3-(2-(2-Aminopyrimidin-4-yl)-3-methylbenzo[b]thiophen-5-ylamino)phenyl)methanesulfonamide], the IC50 in assay [1] and in assay [2] was less than 5 µM throughout.
Take `Cc1c(-c2ccnc(N)n2)sc2ccc(Nc3cccc(N)c3)cc12` [Example 57, N^1-(2-(2-Aminopyrimidin-4-yl)-3-methylbenzo[b]thiophen-5-yl)benzene-1,3-diamine]: the IC50 in assay [1] and in assay [2] was less than 5 µM in each case.
With `CC(=O)Nc1cccc(Nc2ccc3sc(-c4ccnc(N)n4)c(C)c3c2)c1` [Example 58, N-(3-(2-(2-Aminopyrimidin-4-yl)-3-methylbenzo[b]thiophen-5-ylamino)phenyl)acetamide], the IC50 in assay [1] and in assay [2] was less than 5 µM each time.
In the case of `Cc1c(-c2ccnc(N)n2)sc2ccc(Nc3cccc(NC(=O)c4ccc(OCCN5CCOCC5)cc4)c3)cc12` [Example 59, N-(3-(2-(2-Aminopyrimidin-4-yl)-3-methylbenzo[b]thiophen-5-ylamino)phenyl)-4-(2-morpholinoethoxy)benzamide], the IC50 in assay [1] and in assay [2] was less than 5 µM throughout.
For the compound `CC(=O)Oc1ccc(C(=O)Nc2cccc(Nc3ccc4sc(-c5ccnc(N)n5)c(C)c4c3)c2)cc1` [Example 60, 4-(3-(2-(2-Aminopyrimidin-4-yl)-3-methylbenzo[b]thiophen-5-ylamino)phenylcarbamoyl)phenyl acetate], the half-inhibitory concentration (IC50) in assay [1] and in assay [2] was less than 5 µM in each case.
Regarding `Cc1c(-c2ccnc(N)n2)sc2ccc(Nc3cccc(NC(=O)c4ccc(O)cc4)c3)cc12` [Example 61, N-(3-(2-(2-Aminopyrimidin-4-yl)-3-methylbenzo[b]thiophen-5-ylamino)phenyl)-4-hydroxybenzamide], the IC50 in assay [1] and in assay [2] was less than 5 µM each time.
With `COC(=O)c1ccc(C(=O)Nc2cccc(Nc3ccc4sc(-c5ccnc(N)n5)c(C)c4c3)c2)cc1` [Example 62, Methyl 4-(3-(2-(2-aminopyrimidin-4-yl)-3-methylbenzo[b]thiophen-5-ylamino)phenylcarbamoyl)benzoate], the IC50 in assay [1] and in assay [2] was less than 5 µM in each case.

One may read the IC50 as the concentration at which inhibition is half-maximal.
